From article PMC3935398 (2014)

Test system: Streptococcus mutans (Smu) THF riboswitch aptamer (RNA, riboswitch) GGAGAGUAGAUGAUUCGCGUUAAGUGUGUGUGAAUGGGAUGUCGUCACACAACGAAGCGAGAGCGCGGUGAAUCAUUGCAUCCGCUCCA
Assay: ITC
Details: 70 mM NaCl, 2.5 mM MgCl2, 70 mM Na-HEPES pH 8.0, 1 mM DTT, 37 °C

Row | SMILES | KD | KD (PK site only)
1 | Nc1ncnc2[nH]cnc12 | 8 ± 1 µM | 
2 | Nc1nc(N)c2[nH]cnc2n1 |  | 0.5 ± 0.1 µM
3 | Nc1ncc2[nH]cnc2n1 | 26 ± 3 µM | 
4 | Nc1nc2c(N)ncnc2[nH]1 | 160 ± 20 µM | 
